We go through 7 molecules from article PMC5892879, “Structures of the Mycobacterium tuberculosis GlpX protein (class II fructose-1,6-bisphosphatase): implications for the active oligomeric state, catalytic mechanism and citrate inhibition” (Acta Crystallographica. Section D, Structural Biology, 2018).

The target of assay [1] is T1, MtFBPaseII (Mycobacterium tuberculosis, UniProt P9WN21).
T1 construct: His-tag (N); made in house
Put plainly: FBPase activity of wild-type MtFBPaseII, malachite green assay. The class given is biochemical. The settings on record: for IC50: wild-type MtFBPaseII, malachite green assay, fit of triplicate data, standard error reported; for Effect on MtFBPaseII activity (in words): TCA cycle intermediates tested for inhibitory activity. The protocol: The FBPase activity of wild-type MtFBPaseII was measured using the malachite green assay (Bondoc et al., 2017[▸]) in the presence of α-ketoglutarate, citrate, isocitrate, malate, malonate and oxaloacetate. Compounds were tested in triplicate at concentrations of 5000, 3000, 2500, 1300, 630, 310 and 160 µM with positive (no compound) and negative (no enzyme) controls in parallel. Fitting was performed with GraphPad Prism (v.7.0b; GraphPad Software, La Jolla, California, USA). The coupled assay (Bondoc et al., 2017[▸]) was used to obtain kinetic data, which were fitted to a nonlinear Michaelis–Menten equation.

Assay [2] has as its system EcFBPaseI. Set-up: method as in Hines et al., 2007. The settings on record: in the presence of 5 µM AMP, ref Hines et al., 2007; cited from earlier work.
Where [3] appears, read: IC50 values of compounds against MtFBPaseII.
Setting [4] is: read-out: IC50 values of compounds against MtFBPaseII.

“And” between values parts separate entries of the source, which are not always exact repeats. Equal entries are not always repeated. “Also recorded” adds a separate entry of the source. Where two headings read alike, the source gives them in different places.

T1 sequence (P9WN21 whole entry): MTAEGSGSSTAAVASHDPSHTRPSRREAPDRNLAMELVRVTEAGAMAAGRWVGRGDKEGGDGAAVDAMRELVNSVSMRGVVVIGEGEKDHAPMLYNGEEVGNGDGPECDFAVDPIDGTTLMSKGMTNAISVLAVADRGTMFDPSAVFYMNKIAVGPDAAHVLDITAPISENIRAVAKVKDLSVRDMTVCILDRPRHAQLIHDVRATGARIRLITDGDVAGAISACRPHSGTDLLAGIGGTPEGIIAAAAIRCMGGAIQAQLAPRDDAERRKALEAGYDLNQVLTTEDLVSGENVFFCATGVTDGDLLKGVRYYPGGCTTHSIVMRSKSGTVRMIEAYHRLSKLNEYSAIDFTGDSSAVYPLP

As for `O=C(O)CC(O)(CC(=O)O)C(=O)O` [Citrate], the IC50 – broadly, the midpoint of a concentration-inhibition curve – in assay [1] (setting [3]) was ~2 mM and 2 mM. The “Concentration range resulting in activation of the enzyme” value in assay [2] is 0.5 to 5 mM. On to `O=C(O)CC(C(=O)O)C(O)C(=O)O` (centres unmarked) [Isocitrate], for which the “Effect on MtFBPaseII activity (in words)” value in assay [1] is on record as “no effect”. The “Inhibition of MtFBPaseII” value in assay [1] (up to a concentration of 5 mM) is given as “did not inhibit; also recorded: did not have any measureable activity”.

Consider `O=C(O)CC(O)C(=O)O` (centres unmarked) [Malate, malate], for which the IC50 in assay [1] (setting [3]) stood at 3.3 ± 0.1 mM. For `O=C(O)CC(=O)O` [Malonate, malonate], the “Concentration with a weak effect on the activity of the enzyme” value in assay [1] (MtFBPaseII, Fig. 4) was 3 to 4 mM. For the same molecule, the IC50 in assay [1] (setting [4]) came to 3.2 ± 0.1 mM. The molecule `O=C(O)CC(=O)C(=O)O` [Oxaloacetate] gave a concentration for half-maximal inhibition (IC50) in assay [1] (setting [3]) of 6.4 ± 0.5 mM. The “Effect on MtFBPaseII activity (in words)” value in assay [1] was “limited effect”. Regarding `C=C(OP(=O)(O)O)C(=O)O` [PEP, phosphoenolpyruvate], the “Concentration range resulting in activation of the enzyme” value in assay [2] was 0.5 to 5 mM. For `O=C(O)CCC(=O)C(=O)O` [α-Ketoglutarate, α-ketoglutarate], in assay [1] (setting [4]), the IC50 came out at 3.1 ± 0.2 mM.
